The results in this text go back to PubChem BioAssay (NCI).

Among the test systems are OVCAR-3 ovarian; NCI/ADR-RES ovarian; SN12C renal; OVCAR-8 ovarian; MDA-MB-435; PC-3 prostate; HCT-15 colon; HCT-116 colon; ACHN renal; A498 renal.
Assay in all cases: inhibition of tumour cell growth, NCI panel, 48 h

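Assay format: 96-well plates, 48-hour exposure. GI50: concentration for 50% inhibition of growth. TGI is the concentration that stops growth completely.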

Consider `Cn1c2ccccc2c(=O)c2c(O)cc3c(c21)CC(C1(C)CO1)O3` (configuration not stated), for which the TGI in the experiment on OVCAR-3 ovarian was 12.9 µM; in the experiment with NCI/ADR-RES ovarian, 3.2 µM; in the experiment with SN12C renal, 3.77 µM; in the experiment on OVCAR-8 ovarian, 2.51 µM; in the experiment with MDA-MB-435, 3.07 µM; in the experiment on PC-3 prostate it was 14.2 µM. Besides, the TGI in the experiment on HCT-15 colon came to 30.6 µM; in the experiment on HCT-116 colon, 3.06 µM; in the experiment on ACHN renal it was 5.73 µM; in the experiment on A498 renal it was 33.9 µM.

Take `NC1CCC(Nc2nc(NCc3cc(Cl)ccc3O)c3ncn(C4CCCC4)c3n2)CC1` (configuration not stated): the GI50 was 0.133 µM in the experiment with OVCAR-3 ovarian; 0.156 µM in the experiment with NCI/ADR-RES ovarian; 0.143 µM in the experiment with SN12C renal; 0.149 µM in the experiment with MDA-MB-435; 0.16 µM with PC-3 prostate; 0.259 µM in the experiment with HCT-15 colon. For the same compound, the GI50 with HCT-116 colon was 0.0644 µM; in the experiment on ACHN renal it was 0.183 µM; in the experiment on A498 renal, 0.211 µM. Moreover, the TGI in the experiment with OVCAR-3 ovarian turned out to be 0.64 µM; with NCI/ADR-RES ovarian, 0.316 µM; in the experiment on SN12C renal, 0.759 µM; in the experiment on MDA-MB-435 it was 0.328 µM; in the experiment on PC-3 prostate, 0.592 µM; in the experiment with HCT-15 colon, 0.966 µM. The TGI with HCT-116 colon came to 0.66 µM; in the experiment with ACHN renal, 0.527 µM; in the experiment with A498 renal, 0.484 µM.

Take `O=C1CCCCC=C1C[N+](=O)[O-]`: the GI50 with OVCAR-3 ovarian is 23.9 µM; in the experiment on NCI/ADR-RES ovarian it was 36.3 µM; in the experiment on SN12C renal, 31.6 µM; with OVCAR-8 ovarian, 26.6 µM; with MDA-MB-435, 20.6 µM; in the experiment with PC-3 prostate, 41.1 µM. Moreover, the GI50 in the experiment on HCT-15 colon was 13.5 µM; in the experiment with HCT-116 colon, 17 µM; with ACHN renal it was 15.6 µM; with A498 renal, greater than 100 µM. Moreover, the TGI is 69.1 µM in the experiment with OVCAR-3 ovarian; greater than 100 µM in the experiment on NCI/ADR-RES ovarian; greater than 100 µM in the experiment on SN12C renal; greater than 100 µM in the experiment on OVCAR-8 ovarian; 41.2 µM in the experiment on MDA-MB-435; greater than 100 µM in the experiment on PC-3 prostate. The TGI is 35.8 µM in the experiment with HCT-15 colon, 50.8 µM with HCT-116 colon, 31.2 µM in the experiment with ACHN renal and greater than 100 µM in the experiment on A498 renal.

With `O=S(=O)(c1ccc(Br)cc1)N1CCN(S(=O)(=O)c2ccc(Br)cc2)CC1`, the TGI in the experiment with OVCAR-3 ovarian, with NCI/ADR-RES ovarian, with SN12C renal, in the experiment with OVCAR-8 ovarian, with MDA-MB-435 and in the experiment with PC-3 prostate was greater than 100 µM in each case. In addition, the TGI in the experiment on HCT-15 colon, in the experiment on HCT-116 colon, with ACHN renal and with A498 renal was greater than 100 µM throughout.

As for `COc1cc2nc(-c3ccc(Cl)cc3)cc(OCCCN3CCCC3)c2cc1OC`, the GI50 in the experiment on OVCAR-3 ovarian was 2.71 µM; with NCI/ADR-RES ovarian, 0.683 µM; in the experiment on SN12C renal, 0.914 µM; in the experiment on OVCAR-8 ovarian it was 1.19 µM; in the experiment on MDA-MB-435, 2.72 µM; with PC-3 prostate, 1.76 µM. Further, the GI50 was 0.567 µM in the experiment on HCT-15 colon, 0.699 µM with HCT-116 colon, 1.93 µM in the experiment with ACHN renal and 2.19 µM with A498 renal. Besides, the TGI with OVCAR-3 ovarian turned out to be 13.1 µM; in the experiment with NCI/ADR-RES ovarian it was 11 µM; in the experiment with SN12C renal, 13.7 µM; in the experiment on OVCAR-8 ovarian it was 16.1 µM; with MDA-MB-435 it was 10.8 µM; with PC-3 prostate, 10.3 µM. The TGI in the experiment with HCT-15 colon worked out at 11.5 µM; in the experiment with HCT-116 colon, 10.1 µM; in the experiment with ACHN renal, 8.39 µM; with A498 renal, 5.19 µM.

On to `N#Cc1ccsc1NC(=O)COC(=O)c1cccc(S(=O)(=O)N2CCc3ccccc32)c1`, for which the GI50 in the experiment on OVCAR-3 ovarian is 53.7 µM; with NCI/ADR-RES ovarian it was 27.8 µM; in the experiment with MDA-MB-435, 41.4 µM; with PC-3 prostate, 27.1 µM; with HCT-15 colon, 3.25 µM; in the experiment on HCT-116 colon, 4.78 µM. Moreover, the GI50 in the experiment with ACHN renal was 50.5 µM; in the experiment with A498 renal, greater than 100 µM. Also, the TGI in the experiment on OVCAR-3 ovarian, in the experiment on NCI/ADR-RES ovarian, in the experiment on MDA-MB-435, in the experiment with PC-3 prostate, with HCT-15 colon and in the experiment on HCT-116 colon was greater than 100 µM throughout. Also, the TGI in the experiment with ACHN renal and in the experiment with A498 renal was greater than 100 µM each time.

In the case of `CC1(C)CCCC(C)(C2CCC3(C)C2C(O)CC2C4(C)CCC(O)C(C)(C)C4C(O)CC23C)O1` (configuration not stated), the TGI in the experiment on NCI/ADR-RES ovarian turned out to be 37.4 µM; with SN12C renal, 30.8 µM; in the experiment with OVCAR-8 ovarian, 41.9 µM; with MDA-MB-435 it was 30.3 µM; in the experiment on PC-3 prostate it was 25.7 µM; in the experiment on HCT-15 colon, 24.7 µM. Besides, the TGI with HCT-116 colon is greater than 100 µM; with ACHN renal, 24.5 µM; with A498 renal it was 28.1 µM.

With `CC(=O)OC12c3ccccc3-c3ccccc3C1C(C(=O)O)C2(Cl)C(=O)O` (configuration not stated), the TGI in the experiment on OVCAR-3 ovarian, in the experiment with NCI/ADR-RES ovarian, in the experiment on SN12C renal, with OVCAR-8 ovarian, with MDA-MB-435 and with PC-3 prostate was greater than 10 µM throughout. For the same compound, the TGI in the experiment on HCT-15 colon, in the experiment on ACHN renal and in the experiment on A498 renal was greater than 10 µM throughout.
